This note sets out measurements from patent publication US4221794A, “Method of imparting immunomodulating and antiviral activity” (Newport Pharmaceuticals International, Inc., priority 1979, dated 1980).

For one data set, the system named is mouse lymphocytes. The data set can be described thus: Mitogen (Con A) induced mouse lymphocyte (spleen cell) proliferation. The following applies: for Maximum Percent Change, Mitogen Induced (Con A) Mouse Lymph. Prolif.: plus = immunostimulating, minus = immunoinhibiting, 0 = neither. The data set is classed as cell-based. The source says: The following three assay procedures are used to evaluate the ability of the test substances to modulate the activity of several classes of cells in the immune system. In these systems it is possible to identify both immunopotentiating activity (evidence by an enhancement of the parameter examined) as well as immunosuppressant activity (evidenced by an inhibition of the parameter examined).
1. Mitogen-Induced Mouse Spleen Cell Assay
Mouse spleen cells contain a population of both B and T lymphocytes which can be stimulated by a number of foreign substances (e.g., plant mitogens such as Con A) to proliferate. This enhanced proliferation is an indication of enhanced cell mediated immunity. The method below describes the system used to evaluate test substances as immunopotentiators.
Concanavalin A (Calbiochem, La Jolla, California), Lot #210073, lyophilized in NaCl, was prepared first as a 1% solution and diluted as a 2×concentration for each dilution (0.5, 1.0, 2.5 μg/ml).
Six to eight week old male Balb/c and C3 H inbred mice were obtained from the following sources: Flow Research Animals, Inc., Dublin, Virginia; Charles River Breeding Laboratories, Wilmington, Massachusetts; Laboratory Supply Company, Indianapolis, Indiana; and Lionel Strong Foundation, San Diego, California.
Three to five mice were sacrificed by cervical dislocation and the spleens aseptically removed. Pooled spleens were minced and teased with sterile forceps; then strained through a double layer of nylon mesh. The cell suspension was washed once with 15 ml of RPMI 1640 supplemented with 5% fetal calf serum and antibiotics. Cells were cultured at a concentration of 10^6 cells/0.1 ml/well in micro-plates. Cultures were incubated in the presence or absence of mitogen in a humidified atmosphere containing 5% CO2 for 48 hours. The test compound was added to cultures at various concentrations concommitant with mitogen.
Proliferation was assayed by the degree of incorporation of 1.0 μCi of [^3 H] thymidine over an 18 hour incubation period. Cultures were harvested by a MASH unit (Otto Hiller Co., Madison, Wisconsin) and thymidine incorporation was assayed by liquid scintillation spectrometry. Cultures were performed in triplicate and data are expressed as means plus or minus the standard error of the experimental means. Drug stimulation indices over control values were also calculated and portrayed graphically.
Table 4 above presents the results of an evaluation of a number of these subject compounds as potentiators of the immune response. Three different test systems were used. The first involves a measure of the ability of the test compound to enhance the ability of mouse lymphocytes to proliferate in response to a plant mitogen (Con A). The second involves measuring the ability of the test compounds to enhance human lymphocyte proliferation in response to a second plant mitogen (PHA). The third system measures the ability of these test substances to enhance macrophage proliferation in response to a natural lymphokine (MMF, Macrophage Mitogenic Factor).

Data set [1] in a line: Phase solubility study with DIP.PAcBA. The format is physicochemical. The conditions noted are these: constant pH. The source says: This is indicative of an interaction occuring in solution to yield a complex.
Data set [2] has as its system Influenza A Swine 1976 (Hlsw -N1). The data set is classed as cell-based. The following applies: A/Swine/76 (Hlsw N1).
For another data set, the system named is A/Texas/77 (H3 N2). The data set can be described thus: Inhibition of influenza virus replication, A/Texas/77. The data set is classed as cell-based, influenza virus A/Texas/77.
Another data set concerns A/PR8 (H0 N1). The data set can be described thus: Inhibition of influenza virus replication, A/PR8. The data set is classed as cell-based.
In another data set the test system is A/Dunedin/73 (H3 N2). The data set can be described thus: Inhibition of influenza virus replication, A/Dunedin/73. The format is cell-based, influenza virus A/Dunedin/73.
Another data set has as its system A2 Hong Kong (H2 N2). The data set is described as follows: Inhibition of influenza virus replication, A2 Hong Kong. The format is cell-based.
The next data set deals with A/Jap/305 (H2 N2). The data set is described as follows: Inhibition of influenza virus replication, A/Jap/305. The format is cell-based, influenza virus A/Jap/305.

The structures appear in SMILES notation. Read-outs that look alike come from different tables or passages of the source.

On to `CCCCCC[C@H]([C@H](C)O)n1cnc2c(=O)[nH]cnc21` (relative stereo) [NPT 15392, ERYTHRO-9-(2-HYDROXY-3-NONYL)HYPOXANTHINE], for which the “% Stimulation, Mitogen Induced Murine Lymphocyte Proliferation” value in the data set on mouse lymphocytes (01-1.0 μg/ml) is on record as more than 50%; with mouse lymphocytes (1.0-10 μg/ml) it was 30-50%; with mouse lymphocytes (10-100 μg/ml), 30-50%. The “Maximum Percent Change, Mitogen Induced (Con A) Mouse Lymph. Prolif.” value in the data set with mouse lymphocytes (1.0-10 (unit not given)) was 162%; with mouse lymphocytes (10-100 (unit not given)), -72%; in the data set on mouse lymphocytes (.01-1.0 (unit not given)) it was 172%. In addition, in data set [1], the “solubility with DIP.PAcBA (phase solubility)” value is “increased solubility at increasing concentrations of DIP.PAcBA”.

Take `CCCCCC[C@H]([C@H](C)O)n1cnc2c(=O)[nH]cnc21` (relative stereo) [NPT 15410]: the “Inhibition of influenza virus replication” value (“Inhibition” below) in data set [2] (1.0-10.0 μg/ml) is “++ (30-50% Inhibition)”; in data set [2] (10.0-100 μg/ml), “++++ (>70% Inhibition)”; in data set [2] (.01-1.0 μg/ml), “+++ (50-70% Inhibition)”; in data set [2] (>100 μg/ml) it was “++++ (>70% Inhibition)”; in the data set on A/Texas/77 (H3 N2) (A/Texas/77, 1.0-10.0 μg/ml) it was “+ (20-30% Inhibition)”; with A/Texas/77 (H3 N2) (A/Texas/77, 10.0-100 μg/ml), “++++ (>70% Inhibition)”. Moreover, the “Inhibition” value in the data set on A/Texas/77 (H3 N2) (A/Texas/77, .01-1.0 μg/ml) was “++ (30-50% Inhibition)”; in the data set with A/Texas/77 (H3 N2) (A/Texas/77, >100 μg/ml), “++++ (>70% Inhibition)”; with A/PR8 (H0 N1) (A/PR8, 1.0-10.0 μg/ml), “++ (30-50% Inhibition)”; with A/PR8 (H0 N1) (A/PR8, 10.0-100 μg/ml) it was “++++ (>70% Inhibition)”; with A/PR8 (H0 N1) (A/PR8, .01-1.0 μg/ml) it was “++ (30-50% Inhibition)”; in the data set on A/PR8 (H0 N1) (A/PR8, >100 μg/ml), “+++ (50-70% Inhibition)”. Further, the “Inhibition” value is listed as “± (10-20% Inhibition)” with A/Dunedin/73 (H3 N2) (A/Dunedin/73, 10.0-100 μg/ml); “++ (30-50% Inhibition)” with A/Dunedin/73 (H3 N2) (A/Dunedin/73, >100 μg/ml); “++ (30-50% Inhibition)” in the data set on A2 Hong Kong (H2 N2) (10.0-100 μg/ml); “+++ (50-70% Inhibition)” with A2 Hong Kong (H2 N2) (>100 μg/ml); “++++ (>70% Inhibition)” with A/Jap/305 (H2 N2) (A/Jap/305, 10.0-100 μg/ml); “++++ (>70% Inhibition)” in the data set on A/Jap/305 (H2 N2) (A/Jap/305, >100 μg/ml). The “% Stimulation, Mitogen Induced Murine Lymphocyte Proliferation” value is more than 50% in the data set on mouse lymphocytes (01-1.0 μg/ml), 30-50% in the data set on mouse lymphocytes (1.0-10 μg/ml) and 30-50% with mouse lymphocytes (10-100 μg/ml). For the same compound, the “Maximum Percent Change, Mitogen Induced (Con A) Mouse Lymph. Prolif.” value in the data set on mouse lymphocytes (1.0-10 (unit not given)) was 40%; in the data set with mouse lymphocytes (10-100 (unit not given)) it was 40%; with mouse lymphocytes (.01-1.0 (unit not given)), 140%.
